Test in all cases: Preemergent activity
Holding throughout (format): in vivo

In one assay the test system is Crabgrass. The method in brief:
(§1)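 Test compound was applied in acetone mixed with an equal volume of water containing 0.1% Tween-20, sprayed preemergence onto seed beds of sandy loam soil sown with the test species. Beds were kept under identical temperature and light. A solvent-only spray served as control.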

For another assay, the system named is Wheat. The settings on record: Triticum aestivum, pre-emergence, read-out: Preemergence Control; for plant injury at 70 g/ha: 0.07 kgs/hectare; for plant injury at 280 g/ha: 0.28 kgs/hectare. The method in brief:
as §1

The next assay deals with Wild Oats. The conditions noted are these: Avena fatua, pre-emergence, read-out: Preemergence Control; for pest or weed control at 70 g/ha: 0.07 kgs/hectare; for pest or weed control at 280 g/ha: 0.28 kgs/hectare. A digest of the protocol: as §1

Turning to `COC(=O)C(C)Oc1ccc(Oc2ccc(Cl)cc2F)cc1` (racemic) [Example 4-Chloro-, 2-[4-(4-chloro-2-fluorophenoxy)phenoxy]propionic acid methyl ester], the “Preemergence Control” value was found to be 60% in the assay with Crabgrass (0.07 kgs/hectare); 100% in the assay on Crabgrass (0.14 kgs/hectare); 100% in the assay with Crabgrass (0.28 kgs/hectare); 100% with Crabgrass (0.56 kgs/hectare); 100% in the assay on Crabgrass (1.12 kgs/hectare). For the same compound, the plant injury at 70 g/ha in the assay with Wheat amounted to 0%. For the same compound, the plant injury at 140 g/ha in the assay on Wheat (0.14 kgs/hectare) is 0%. The plant injury at 280 g/ha with Wheat is 0%. Also, the plant injury at 560 g/ha in the assay with Wheat (0.56 kgs/hectare) was found to be 0%. Besides, in the assay on Wheat (1.12 kgs/hectare), the plant injury at 1120 g/ha was found to be 0%. The pest or weed control at 70 g/ha with Wild Oats was found to be 0%. In the assay with Wild Oats (0.14 kgs/hectare), the pest or weed control at 140 g/ha is 0%. Further, in the assay on Wild Oats, the pest or weed control at 280 g/ha came to 20%. In addition, the pest or weed control at 560 g/ha in the assay with Wild Oats (0.56 kgs/hectare) came to 50%. In addition, the pest or weed control at 1120 g/ha with Wild Oats (1.12 kgs/hectare) stood at 70%.
As for `COC(=O)C(C)Oc1ccc(Oc2ccc(C(F)(F)F)cc2F)cc1` (stereo not drawn) [2-[4-(2-fluoro-4-trifluoromethylphenoxy)phenoxy]propionic acid methyl ester], the “Preemergence Control” value with Crabgrass (0.018 kgs/hectare) came out at 40%; in the assay with Crabgrass (0.035 kgs/hectare), 100%; with Crabgrass (0.07 kgs/hectare) it was 100%; in the assay on Crabgrass (0.114 kgs/hectare) it was 100%; with Crabgrass (0.28 kgs/hectare), 100%. Further, the plant injury at 18 g/ha in the assay on Wheat (0.018 kgs/hectare) was found to be 0%. Further, in the assay with Wheat (0.035 kgs/hectare), the plant injury at 35 g/ha worked out at 20%. For the same compound, the plant injury at 70 g/ha in the assay with Wheat was 90%. The plant injury at 114 g/ha in the assay on Wheat (0.114 kgs/hectare) was 100%. Besides, the plant injury at 280 g/ha in the assay with Wheat was 100%. Besides, the pest or weed control at 18 g/ha with Wild Oats (0.018 kgs/hectare) amounted to 0%. Further, the pest or weed control at 35 g/ha in the assay on Wild Oats (0.035 kgs/hectare) was found to be 20%. For the same compound, the pest or weed control at 70 g/ha with Wild Oats was 90%. Further, the pest or weed control at 114 g/ha in the assay on Wild Oats (0.114 kgs/hectare) amounted to 100%. Further, the pest or weed control at 280 g/ha with Wild Oats amounted to 100%.

For the origin of these results see US4725683A, “Fluorophenoxyphenoxypropionates and derivatives thereof” (The Dow Chemical Company, priority 1985, dated 1988).
